The text below walks through data of the METLIN SMRT retention time set (Domingo-Almenara et al. 2019).

A short description of the data set: gradient 5% acetonitrile 3 min, to 50% in 2 min, to 85% in 15 min, held 3 min, 100 µL/min. The following applies: column: Zorbax Extend-C18 2.1 x 50 mm; eluents: water / acetonitrile, 0.1% formic acid. Put shortly: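 The system's dead and dwell volumes were 40 μL and 900 μL, with a Zorbax Extend-C18 column (2.1 × 50 mm, 1.8 μm) run at 100 μL/min in water and acetonitrile containing 0.1% formic acid each. Pure standards were analyzed in mixtures of ~100 molecules by HPLC–quadrupole time-of-flight mass spectrometry in positive and negative ionization mode. Retention time was assigned from computationally picked, manually inspected adduct peaks.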
On to `CCN1C(=O)COc2ccc(-c3noc(-c4cc(OC)cc(OC)c4)n3)cc21`, for which the RP-LC retention time came to 1040 s. In the case of `CCCNc1nc(-c2cccc(Br)c2)cs1` it was 1030 s. In the case of `Cc1ccc(CNC(=O)C2(C)Cn3nc(C)cc3C(=O)N2c2ccc3c(c2)OCCO3)cc1` (stereo not given) it was 809 s. `CCc1csc(-c2ccc(N3CCN(C(=O)c4ccc(F)cc4F)CC3)nc2)n1` yielded an RP-LC retention time of 890 s.

The compound `Cc1cc(C)c(CNC(=O)C2CCCN(c3cnc4nccnc4c3)C2)c(C)c1` (stereo not given) displayed an RP-LC retention time of 819 s. The figure for `O=C(NCc1ccc2c(c1)OCCCO2)c1cccs1` is 791 s; for `CCc1nnc(-c2ccc3ccn(CC(=O)Nc4ccccc4C)c3c2)o1` it is 826 s; for `COc1cccc(-c2nnc(Cc3nc(-c4ccc5c(c4)OCO5)no3)o2)c1` it is 977 s. Regarding `Cc1ccc(Sc2nccnc2N2CCCC(C(=O)NCC3CCCO3)C2)cc1` (stereo not given), the RP-LC retention time amounted to 917 s. In the case of `O=C(C1CCC1)N1CCc2sc(S(=O)(=O)NCc3ccc(F)cc3Cl)cc2C1` it was 948 s; in that of `Cc1nc2cc(-c3noc(-c4cccc(F)c4)n3)ccc2n(C)c1=O`, 1020 s; in that of `Cc1cc(C)c(CN2CC(CNC(=O)N3CCCC3)C3(CCOCC3)C2)c(C)c1` (stereo not given), 635 s. `CCN(Cc1ccccc1)C(=O)Cn1nc2c(N3CCC(C)CC3)nccn2c1=O` gave an RP-LC retention time of 861 s.

The compound `CCOC(=O)c1nc(Nc2ccc(F)cc2Cl)c2ccccc2n1` gave an RP-LC retention time of 890 s. For `COc1ccc(NC(=O)C2CCN(c3cc(N4CCSCC4)ncn3)CC2)cc1OC`, the RP-LC retention time is 627 s. As to `CCOc1ccc(C(=O)N2CCN(c3ccc(=O)n(-c4ccc(C(C)C)cc4)n3)CC2)cc1`, the RP-LC retention time is 1000 s.

Consider `CC(C)NC(=O)CC1Sc2ncccc2N(C)C1=O` (stereo not given), for which the RP-LC retention time is 604 s. For the compound `Cc1ccc(C(=O)Nc2nc(-c3ccc4c(c3)N(C)C(=O)CO4)cs2)cc1`, the RP-LC retention time turned out to be 952 s.

`CC(C)c1noc(-c2cccnc2N2CCCN(Cc3cccc(Cl)c3)CC2)n1` had an RP-LC retention time of 742 s. In turn, `CC(C)COc1cc(=O)n2c(c1C(=O)N1CCN(c3ccccn3)CC1)CCCCC2` yielded an RP-LC retention time of 591 s. The figure for `COc1cccc(Cn2cc(C(=O)O)nn2)c1` is 635 s; for `Cc1cc(-c2nnc(-c3ccccc3)o2)c(C)n1CC(=O)Nc1ccc2c(c1)OCCO2` it is 902 s. In the case of `COc1ccc(-c2nc(C)cc(C)c2CNC(=O)CC2CCCC2)cc1` it was 639 s; in that of `O=C(c1ccc(F)c(F)c1)N1CCc2[nH]cnc2C1c1ccccc1` (stereo not given), 652 s; in that of `Cc1nc(C2(C)CCN(S(=O)(=O)c3ccc(F)c(C)c3)CC2)no1`, 927 s. In the case of `O=C(Nc1cnc(-c2ccc(Cl)cc2)nc1)c1ccc(Br)o1` it was 1120 s; in that of `O=c1[nH]c2cc(Br)cnc2[nH]c1=O`, 553 s; in that of `Cc1ccc(C(C)NC(=O)c2ccc(-c3cccnc3)nc2)c(C)c1` (stereo not given), 745 s. The compound `CCc1cccc(C)c1Nc1c(-c2ccc(F)cc2)nc2cnccn12` came in with an RP-LC retention time of 1010 s. The figure for `CCC(=O)N1CCCC(c2ccnc(Nc3ccc(C)cc3)n2)C1` (stereo not given) is 827 s; for `Cc1ccc(N(Cc2nc3nc(C)c(Cl)c(C)n3n2)C(=O)c2ccco2)cc1` it is 887 s; for `CCn1cc(-c2nc(C(=O)Nc3cc(OC)ccc3OC)cs2)c2cccnc21` it is 1170 s.

`CCNc1cc(N2CCCC(CCC(=O)Nc3ccccc3)C2)ncn1` (stereo not given) displayed an RP-LC retention time of 669 s. The figure for `Cc1noc(C)c1-c1ccc(S(=O)(=O)Nc2cccc(C#N)c2)cc1` is 874 s. The figure for `Cc1ccc(S(=O)(=O)NCCc2nnc3ccc(NCCCOC(C)C)nn23)cc1` is 657 s. The figure for `O=C(CN1CCCCC1c1nc(C2CC2)no1)Nc1cccnc1` (stereo not given) is 592 s; for `Cc1nccn1C1CN(C(=O)C(C)Oc2ccccc2)C1` (stereo not given) it is 599 s; for `Cc1ccc(C)c(-c2nc3ccccc3c(C(=O)N3CCN(c4ncccn4)CC3)c2C)c1` it is 903 s. `COc1ccc(CNC(=O)CN2CCc3[nH]c4c(C)cc(C)cc4c(=O)c3C2)cc1` registered an RP-LC retention time of 629 s. In turn, `O=C(c1ccccc1)N1CCN(S(=O)(=O)c2cc3c4c(c2)CCC(=O)N4CCC3)CC1` had an RP-LC retention time of 789 s.

Consider `O=C(NC1CCN(c2cc(-c3ccc(Cl)cc3)[nH]n2)C1)c1ccccc1F` (stereo not given), for which the RP-LC retention time was found to be 777 s. In the case of `Cc1ccc(NC(=O)Cn2cnc3nc(N4CCCC(C(=O)NC5CC5)C4)sc3c2=O)c(F)c1` (stereo not given) it was 680 s; in that of `Cc1cc(C)cc(NC(=O)C2CC(=O)N(c3n[nH]c4cccc(F)c34)C2)c1` (stereo not given), 770 s; in that of `Cc1cc(N2CCN(c3ccccn3)CC2)n2ncc(-c3ccc(F)cc3)c2n1`, 732 s.

The compound `Cc1ccc2c(c1)C(=O)NC1(CCN(C(=O)NCc3ccccc3)CC1)N2C` gave an RP-LC retention time of 731 s. As to `COc1ccc(-n2ccn3c(CCC(=O)N4CCN(c5ccccn5)CC4)nnc3c2=O)cc1`, the RP-LC retention time stood at 663 s.

`O=C(c1cccs1)N1CCN(c2nnc3ccc(Cl)cn23)CC1` yielded an RP-LC retention time of 691 s. The figure for `CCc1ccc(NC(=O)C2CC(=O)N(CCc3c[nH]c4ccc(F)cc34)C2)cc1` (stereo not given) is 873 s. In the case of `Cc1c(F)cccc1NC(=O)Nc1ccc(Nc2cc(-n3cccn3)ncn2)cc1` it was 866 s; in that of `Cc1cc(C)n(-c2ccnc(N3CCC(C(=O)NCc4ccccc4)CC3)n2)n1`, 832 s. In the case of `COc1ccc(NS(=O)(=O)c2cc3c(s2)CCN(C(=O)C2CC2)C3)cc1Cl` it was 826 s.

The compound `COc1ccc(NC(=O)C2CCCN(c3nnc4ccccn34)C2)cc1C(F)(F)F` (stereo not given) showed an RP-LC retention time of 704 s. The compound `COc1ccc(CNC(=O)Cn2nc3c4sc(N(C)C)nc4ncn3c2=O)cc1` gave an RP-LC retention time of 668 s. `COCCN1C(=O)[C@H]2CN(Cc3cccc(Cl)c3)C[C@H]2C1=O` yielded an RP-LC retention time of 633 s. As to `COc1ncccc1C(=O)N1CCC(C(=O)Nc2cc(C)on2)CC1`, the RP-LC retention time turned out to be 622 s. Consider `COc1ccc(-n2ccn(CC(=O)Nc3ccc(OC)c(Cl)c3)c2=O)cc1`, for which the RP-LC retention time came out at 734 s. As to `COc1ccc(Nc2c(C(=O)N3CCCC3)cnc3nc(C)ccc23)c(OC)c1`, the RP-LC retention time turned out to be 600 s.

Compound `O=C(NCCn1nnc2cc(C(=O)N3CCCC3)ccc21)Nc1ccccc1Br` displayed an RP-LC retention time of 683 s. The figure for `COc1ccc(CNC(=O)C2CCCN(c3cnc4nc(C)c(C)nc4c3)C2)cc1` (stereo not given) is 710 s. Take `Cc1cc(NC(=O)c2cnccn2)sn1`: the RP-LC retention time stood at 606 s.
